How the values were obtained:
[1] = biological target: T1, Serine protease 1 (Homo sapiens, UniProt P07477); test: Compound was tested for inhibition of trypsin
[2] = biological target: Prothrombin (Homo sapiens, UniProt P00734); test: Compound was tested for inhibition of thrombin.; parameters: species or system Oryctolagus cuniculus
[3] = biological target: Coagulation factor X (Homo sapiens, UniProt P00742); test: Compound was tested for inhibition of blood coagulation factor X
[4] = biological target: T1, Serine protease 1; test: Compound was tested for inhibition of trypsin.

T1 sequence (P07477 whole entry): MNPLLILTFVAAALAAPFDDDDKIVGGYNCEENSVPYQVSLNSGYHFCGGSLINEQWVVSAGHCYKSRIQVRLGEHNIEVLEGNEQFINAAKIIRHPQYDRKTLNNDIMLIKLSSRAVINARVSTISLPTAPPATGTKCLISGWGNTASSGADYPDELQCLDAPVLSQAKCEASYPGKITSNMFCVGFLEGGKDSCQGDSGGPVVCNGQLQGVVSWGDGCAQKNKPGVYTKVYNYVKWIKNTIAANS
Chain of Coagulation factor X (P00742 41-179 limits assumed): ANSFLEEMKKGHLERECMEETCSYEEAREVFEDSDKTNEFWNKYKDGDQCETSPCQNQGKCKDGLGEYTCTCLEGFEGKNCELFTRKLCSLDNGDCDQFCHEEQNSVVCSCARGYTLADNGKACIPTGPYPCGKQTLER
Chain of Coagulation factor X (P00742 235-488 limits assumed): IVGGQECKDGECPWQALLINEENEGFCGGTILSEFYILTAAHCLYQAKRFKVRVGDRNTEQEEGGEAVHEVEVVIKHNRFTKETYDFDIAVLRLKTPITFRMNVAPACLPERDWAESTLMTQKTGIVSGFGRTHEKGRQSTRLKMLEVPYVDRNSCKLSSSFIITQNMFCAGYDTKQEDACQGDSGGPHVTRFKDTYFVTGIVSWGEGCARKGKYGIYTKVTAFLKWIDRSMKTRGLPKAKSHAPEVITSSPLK

A Ki [1] of 1100 nM was found for `CC(=N)N1CC[C@H](Oc2ccc(C(Cc3ccc4ccc(C(=N)N)cc4c3)C(=O)O)cc2)C1` (some centres undefined) in this work.

With `N=C(N)c1cccc(NC(=O)NC2CCN(Cc3ccccc3)CC2)c1` the Ki [2] was > 21000 nM, the Ki [3] was 4900 nM and the Ki [4] was > 1200 nM.

`N=C(N)c1cccc(N2CCCCN(C3CCN(C(=N)N)CC3)C2=O)c1` was tested, and the Ki [2] was > 21000 nM and the Ki [3] was 2500 nM.

A Ki [2] of 7300 nM and a Ki [3] of 400 nM were found for `N=C(N)c1cccc(N2CCCN(C3CCN(Cc4ccccc4)CC3)C2=O)c1` in this work.

A Ki [2] of 11000 nM and a Ki [3] of 2100 nM were found for `N=C(N)c1cccc(N2CCN(C3CCN(Cc4ccccc4)CC3)C2=O)c1` in this work.

A Ki [2] of 2000 nM, a Ki [3] of 102 nM and a Ki [4] of 282 nM were found for `N=C(N)c1cccc(N2CCCCN(C3CCN(Cc4ccccc4)CC3)C2=O)c1` in this work.

A Ki [2] of 9300 nM, a Ki [3] of 800 nM and a Ki [4] of 120 nM were found for `N=C(N)c1ccc(N2CCCCN(c3cccc(C(=N)N)c3)C2=O)cc1` in this work.

With `N=C(N)c1ccc(N2CCCCN(C3CCN(Cc4ccccc4)CC3)C2=O)cc1` the Ki [2] was > 21000 nM, the Ki [3] was 7500 nM and the Ki [4] was > 1600 nM.

Reference: ChEMBL document CHEMBL1131265, “The de novo design and synthesis of cyclic urea inhibitors of factor Xa: initial SAR studies” (Bioorg Med Chem Lett, 1998)
